# From ChEMBL document CHEMBL1145159 (J Med Chem, 2005)
# Values joined by “and” are separate entries in the source; they are usually repeats but may differ in a detail not shown here. Equal values may be shown once. Peptide text beside a SMILES is read from it.
# Experiments:
# [1] = molecular target: T1, Neuronal acetylcholine receptor; alpha4/beta4 (Homo sapiens, UniProt P30926+P43681); assay: Maximal response against Nicotinic acetylcholine receptor alpha4-beta4; assay type: protein-complex assay
# [2] = molecular target: T2, Neuronal acetylcholine receptor; alpha4/beta2 (Homo sapiens, UniProt P17787+P43681); assay: Maximal response against Nicotinic acetylcholine receptor alpha4-beta2; assay type: protein-complex assay
# [3] = molecular target: T3, Neuronal acetylcholine receptor; alpha3/beta4 (Homo sapiens, UniProt P30926+P32297); assay: Maximal response against Nicotinic acetylcholine receptor alpha3-beta4; assay type: protein-complex assay
# [4] = molecular target: T3, Neuronal acetylcholine receptor; alpha3/beta4; assay: Inhibitory concentration against Nicotinic acetylcholine receptor alpha3-beta4; assay type: protein-complex assay
# [5] = molecular target: T4, Neuronal acetylcholine receptor; alpha3/beta2 (Homo sapiens, UniProt P17787+P32297); assay: Effective concentration against Nicotinic acetylcholine receptor alpha3-beta2; assay type: protein-complex assay
# [6] = molecular target: T2, Neuronal acetylcholine receptor; alpha4/beta2; assay: Effective concentration against Nicotinic acetylcholine receptor alpha4-beta2; assay type: protein-complex assay
# [7] = molecular target: T5, Neuronal acetylcholine receptor subunit alpha-7 (Homo sapiens, UniProt P36544); assay: Effective concentration against Nicotinic acetylcholine receptor alpha 7
# [8] = molecular target: T6, Neuronal acetylcholine receptor; alpha2/beta4 (Homo sapiens, UniProt P30926+Q15822); assay: Maximal response against Nicotinic acetylcholine receptor alpha2-beta4; assay type: protein-complex assay
# [9] = molecular target: Neuronal acetylcholine receptor subunit alpha-7 (Rattus norvegicus) (UniProt Q05941); assay: Maximal response against Nicotinic acetylcholine receptor alpha 7
# [10] = molecular target: T6, Neuronal acetylcholine receptor; alpha2/beta4; assay: Maximal response against Nicotinic acetylcholine receptor alpha2-beta4 expressed in HEK293 cells; assay type: cell-based
# [11] = molecular target: T4, Neuronal acetylcholine receptor; alpha3/beta2; assay: Maximal response against Nicotinic acetylcholine receptor alpha3-beta2 expressed in HEK293 cells; assay type: cell-based
# [12] = molecular target: T2, Neuronal acetylcholine receptor; alpha4/beta2; assay: Maximal response against Nicotinic acetylcholine receptor alpha4-beta2 expressed in HEK293 cells; assay type: cell-based
# [13] = molecular target: T3, Neuronal acetylcholine receptor; alpha3/beta4; assay: Effective concentration against Nicotinic acetylcholine receptor alpha3-beta4; assay type: protein-complex assay
# [14] = molecular target: T1, Neuronal acetylcholine receptor; alpha4/beta4; assay: Effective concentration against Nicotinic acetylcholine receptor alpha4-beta4; assay type: protein-complex assay
# [15] = molecular target: T2, Neuronal acetylcholine receptor; alpha4/beta2; assay: Inhibitory concentration against Nicotinic acetylcholine receptor alpha4-beta2; assay type: protein-complex assay
# [16] = molecular target: T4, Neuronal acetylcholine receptor; alpha3/beta2; assay: Inhibitory concentration against Nicotinic acetylcholine receptor alpha3-beta2; assay type: protein-complex assay
# [17] = molecular target: T5, Neuronal acetylcholine receptor subunit alpha-7; assay: Inhibitory concentration against Nicotinic acetylcholine receptor alpha 7
# [18] = molecular target: T6, Neuronal acetylcholine receptor; alpha2/beta4; assay: Effective concentration against Nicotinic acetylcholine receptor alpha2-beta4; assay type: protein-complex assay
# [19] = Effective concentration against Nicotinic acetylcholine receptor alpha2-beta4 expressed in xenopus oocytes; assay type: cell-based; conditions: oocyte
# [20] = Effective concentration against Nicotinic acetylcholine receptor alpha4-beta2 expressed in xenopus oocytes; assay type: cell-based; conditions: oocyte
# [21] = Effective concentration against Nicotinic acetylcholine receptor alpha4-beta4 expressed in xenopus oocytes; assay type: cell-based; conditions: oocyte
# [22] = Effective concentration against Nicotinic acetylcholine receptor alpha3-beta4 expressed in xenopus oocytes; assay type: cell-based; conditions: oocyte
# [23] = molecular target: T4, Neuronal acetylcholine receptor; alpha3/beta2; assay: Maximal response against Nicotinic acetylcholine receptor alpha3-beta2; assay type: protein-complex assay
# [24] = molecular target: T4, Neuronal acetylcholine receptor; alpha3/beta2; assay: Effective concentration against Nicotinic acetylcholine receptor alpha3-beta2 expressed in xenopus oocytes; assay type: cell-based, Oocyte
# [25] = molecular target: T6, Neuronal acetylcholine receptor; alpha2/beta4; assay: Inhibitory concentration against Nicotinic acetylcholine receptor alpha2-beta4; assay type: protein-complex assay
# T4 sequence (P17787 whole entry): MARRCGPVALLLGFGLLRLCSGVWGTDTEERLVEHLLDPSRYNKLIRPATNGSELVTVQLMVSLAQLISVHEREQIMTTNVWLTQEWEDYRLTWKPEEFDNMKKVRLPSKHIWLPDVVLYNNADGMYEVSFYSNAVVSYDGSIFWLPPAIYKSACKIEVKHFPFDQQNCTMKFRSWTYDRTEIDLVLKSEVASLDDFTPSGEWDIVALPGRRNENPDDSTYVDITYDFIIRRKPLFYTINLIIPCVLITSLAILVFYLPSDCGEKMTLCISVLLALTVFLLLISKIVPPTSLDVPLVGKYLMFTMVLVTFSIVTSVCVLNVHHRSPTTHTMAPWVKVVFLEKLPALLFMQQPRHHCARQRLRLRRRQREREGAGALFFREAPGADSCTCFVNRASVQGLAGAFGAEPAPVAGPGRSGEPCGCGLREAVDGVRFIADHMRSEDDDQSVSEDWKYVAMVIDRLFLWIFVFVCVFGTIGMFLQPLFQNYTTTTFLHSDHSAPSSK
# T4 sequence (P32297 whole entry): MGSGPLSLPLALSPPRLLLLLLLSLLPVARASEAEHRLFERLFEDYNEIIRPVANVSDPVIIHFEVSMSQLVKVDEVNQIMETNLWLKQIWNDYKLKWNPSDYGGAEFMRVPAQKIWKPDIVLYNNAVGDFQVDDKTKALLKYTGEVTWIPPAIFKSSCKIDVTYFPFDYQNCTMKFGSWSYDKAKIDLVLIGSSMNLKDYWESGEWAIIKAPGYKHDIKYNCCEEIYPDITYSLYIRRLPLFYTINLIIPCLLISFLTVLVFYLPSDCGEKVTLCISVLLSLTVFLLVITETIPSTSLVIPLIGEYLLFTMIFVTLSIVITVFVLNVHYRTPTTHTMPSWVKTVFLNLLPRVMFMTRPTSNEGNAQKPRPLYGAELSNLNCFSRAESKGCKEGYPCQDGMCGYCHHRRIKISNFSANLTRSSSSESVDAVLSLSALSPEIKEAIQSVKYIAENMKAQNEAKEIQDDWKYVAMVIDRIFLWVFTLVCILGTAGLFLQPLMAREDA
# T2 sequence (P17787 whole entry): as the sequence (P17787 whole entry) above
# T2 sequence (P43681 whole entry): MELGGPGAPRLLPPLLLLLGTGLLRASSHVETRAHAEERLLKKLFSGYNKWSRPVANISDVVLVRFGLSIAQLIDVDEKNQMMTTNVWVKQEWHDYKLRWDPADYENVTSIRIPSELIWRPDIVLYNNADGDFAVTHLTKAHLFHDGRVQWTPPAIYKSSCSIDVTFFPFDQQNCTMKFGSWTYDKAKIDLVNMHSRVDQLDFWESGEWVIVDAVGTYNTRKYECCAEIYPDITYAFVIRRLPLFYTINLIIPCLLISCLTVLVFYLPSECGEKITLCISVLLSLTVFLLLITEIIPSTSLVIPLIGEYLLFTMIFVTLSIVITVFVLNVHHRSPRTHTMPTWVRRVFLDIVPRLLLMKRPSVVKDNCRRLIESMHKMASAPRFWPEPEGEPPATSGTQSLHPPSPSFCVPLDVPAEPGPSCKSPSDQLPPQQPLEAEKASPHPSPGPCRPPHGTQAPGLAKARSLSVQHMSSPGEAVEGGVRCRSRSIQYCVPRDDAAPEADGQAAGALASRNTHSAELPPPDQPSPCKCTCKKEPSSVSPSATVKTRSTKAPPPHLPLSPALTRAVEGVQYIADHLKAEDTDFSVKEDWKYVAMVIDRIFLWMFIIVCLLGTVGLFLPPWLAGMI
# T3 sequence (P30926 whole entry): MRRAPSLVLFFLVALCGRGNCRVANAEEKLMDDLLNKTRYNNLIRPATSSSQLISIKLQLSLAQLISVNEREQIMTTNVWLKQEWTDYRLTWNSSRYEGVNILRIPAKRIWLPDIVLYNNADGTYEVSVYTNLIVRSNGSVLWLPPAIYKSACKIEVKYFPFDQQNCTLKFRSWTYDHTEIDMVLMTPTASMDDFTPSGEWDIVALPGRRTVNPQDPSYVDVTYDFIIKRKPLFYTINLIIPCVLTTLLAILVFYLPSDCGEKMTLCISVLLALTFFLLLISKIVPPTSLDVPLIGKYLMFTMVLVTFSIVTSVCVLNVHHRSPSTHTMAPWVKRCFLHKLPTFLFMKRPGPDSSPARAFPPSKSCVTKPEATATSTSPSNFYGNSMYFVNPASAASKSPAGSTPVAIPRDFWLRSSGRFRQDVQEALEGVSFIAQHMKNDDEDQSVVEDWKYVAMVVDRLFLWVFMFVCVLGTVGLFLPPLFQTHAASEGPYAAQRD
# T3 sequence (P32297 whole entry): as the sequence (P32297 whole entry) above
# Sequence of Neuronal acetylcholine receptor subunit alpha-7 (Rattus norvegicus) (Q05941 whole entry): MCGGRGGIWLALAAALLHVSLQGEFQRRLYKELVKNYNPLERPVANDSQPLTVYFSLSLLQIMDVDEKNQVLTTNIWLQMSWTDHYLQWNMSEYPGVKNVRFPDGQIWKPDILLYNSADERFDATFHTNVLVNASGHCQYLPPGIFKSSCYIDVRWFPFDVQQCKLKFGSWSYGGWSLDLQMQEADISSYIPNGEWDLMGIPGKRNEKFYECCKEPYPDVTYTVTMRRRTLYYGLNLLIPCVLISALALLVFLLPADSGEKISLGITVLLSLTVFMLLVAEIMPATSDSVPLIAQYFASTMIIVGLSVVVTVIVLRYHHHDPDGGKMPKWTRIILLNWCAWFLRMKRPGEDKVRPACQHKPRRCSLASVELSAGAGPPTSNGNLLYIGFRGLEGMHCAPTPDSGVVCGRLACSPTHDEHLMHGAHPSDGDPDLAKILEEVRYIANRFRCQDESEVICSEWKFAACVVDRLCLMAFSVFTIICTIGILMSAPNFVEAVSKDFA
# T5 sequence (P36544 whole entry): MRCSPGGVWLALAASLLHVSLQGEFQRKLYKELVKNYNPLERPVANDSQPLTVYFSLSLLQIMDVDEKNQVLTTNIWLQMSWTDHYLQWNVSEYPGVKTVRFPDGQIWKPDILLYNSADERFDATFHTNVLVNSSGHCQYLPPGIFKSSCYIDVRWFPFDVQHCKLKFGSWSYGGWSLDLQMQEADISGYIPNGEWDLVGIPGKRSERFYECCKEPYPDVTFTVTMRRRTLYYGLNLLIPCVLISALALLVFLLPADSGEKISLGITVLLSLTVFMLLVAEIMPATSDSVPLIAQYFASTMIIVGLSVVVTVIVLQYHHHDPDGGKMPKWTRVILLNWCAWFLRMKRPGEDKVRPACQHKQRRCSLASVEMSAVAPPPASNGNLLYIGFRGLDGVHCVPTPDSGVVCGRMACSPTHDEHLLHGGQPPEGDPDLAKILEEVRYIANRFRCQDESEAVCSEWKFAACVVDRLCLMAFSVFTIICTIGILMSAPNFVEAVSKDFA
# T1 sequence (P30926 whole entry): as the sequence (P30926 whole entry) above
# T1 sequence (P43681 whole entry): as the sequence (P43681 whole entry) above
# T6 sequence (P30926 whole entry): as the sequence (P30926 whole entry) above
# T6 sequence (Q15822 whole entry): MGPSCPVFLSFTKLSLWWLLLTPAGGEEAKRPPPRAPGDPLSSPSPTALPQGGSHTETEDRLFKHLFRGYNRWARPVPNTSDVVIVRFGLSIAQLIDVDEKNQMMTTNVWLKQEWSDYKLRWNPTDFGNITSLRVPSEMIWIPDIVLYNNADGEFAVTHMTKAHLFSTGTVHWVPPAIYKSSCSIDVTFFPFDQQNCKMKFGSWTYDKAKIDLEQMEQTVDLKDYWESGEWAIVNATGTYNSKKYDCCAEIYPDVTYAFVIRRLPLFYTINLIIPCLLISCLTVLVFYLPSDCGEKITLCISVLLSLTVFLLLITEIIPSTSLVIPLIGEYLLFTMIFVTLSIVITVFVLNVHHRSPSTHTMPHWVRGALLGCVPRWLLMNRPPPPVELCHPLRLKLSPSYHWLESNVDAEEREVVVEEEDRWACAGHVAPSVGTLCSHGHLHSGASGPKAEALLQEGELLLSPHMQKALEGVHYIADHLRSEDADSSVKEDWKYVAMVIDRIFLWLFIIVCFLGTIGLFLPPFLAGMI
compound,measurement,setting,value
c1cncc(C2CC3CCC2N3)c1 (centres undefined),Rmax,[1],147%
same,Rmax,[2],112%
same,Rmax,[3],61%
C[C@H](NC(=O)[C@H](Cc1ccccc1)NC(=O)[C@H](CS)NC(=O)[C@@H]1CCCN1C(=O)[C@@H]1CCCN1C(=O)[C@H](Cc1ccc(O)cc1)NC(=O)[C@H](CO)NC(=O)[C@H](CS)NC(=O)[C@H](CS)NC(=O)CN)C(=O)N[C@H](C(=O)N[C@@H](CC(N)=O)C(=O)N[C@@H](CO)C(=O)NCC(=O)N[C@@H](Cc1ccc(O)cc1)C(=O)N[C@@H](CS)C(N)=O)[C@@H](C)O,IC50,[4],> 0.75 µM
CN1C2CC[C@@H]1CC2c1ccnnc1 (some centres undefined),EC50,[5],0.013 µM
same,EC50,[6],0.32 µM
same,EC50,[7],25 µM
COc1cc2c(cn1)C1NCCC1CC2 (centres undefined),Rmax,[8],22%
same,Rmax,[1],44%
same,Rmax,[2],8%
same,Rmax,[3],5%
same,EC50,[7],> 300 µM
C[C@H](NC(=O)[C@H](Cc1ccccc1)NC(=O)[C@H](CS)NC(=O)[C@@H]1CCCN1C(=O)[C@@H]1CCCN1C(=O)[C@H](Cc1ccc(O)cc1)NC(=O)[C@H](CO)NC(=O)[C@H](CS)NC(=O)[C@H](CS)NC(=O)CN)C(=O)N[C@H](C(=O)N[C@@H](CC(N)=O)C(=O)N[C@@H](CO)C(=O)N[C@@H](CC(=O)O)C(=O)N[C@@H](Cc1ccc(O)cc1)C(=O)N[C@@H](CS)C(N)=O)[C@@H](C)O,IC50,[4],> 0.75 µM
O=c1c(I)ccc2n1C[C@@H]1CNC[C@H]2C1,Rmax,[1],105%
same,Rmax,[9],107%
same,Rmax,[2],47%
c1cnc2c(c1)O[C@H]1CCN3CC[C@@]1(C2)C3 [DIANICLINE],EC50,[5],> 100 µM
same,Rmax,[2],19%
same,EC50,[6],> 100 µM
Cc1ncccc1OC[C@@H]1CCN1,Rmax,[9],> 1000%
same,Rmax,[3],< 15%
Clc1ccc(OC[C@H]2CCN2)cn1,Rmax,[3],116%
Clc1ccc(C2CC3CCC2N3)cn1 (centres undefined),Rmax,[10],115%
same,Rmax,[1],99% and 85%
same,Rmax,[9],97%
same,Rmax,[11],163%
same,Rmax,[12],117%
O=C(NC1CN2CCC1CC2)c1ccc(-c2ccsc2)s1 (centres undefined),Rmax,[9],100%
same,EC50,[13],> 10 µM
same,EC50,[14],> 10 µM
same,EC50,[6],> 10 µM
C[C@H](NC(=O)[C@H](C)NC(=O)[C@H](CS)NC(=O)[C@H](C)NC(=O)[C@@H]1CCCN1C(=O)[C@H](Cc1c[nH]cn1)NC(=O)[C@H](CO)NC(=O)[C@H](CS)NC(=O)[C@H](CS)NC(=O)CNC(=O)CN)C(=O)N[C@@H](CC(N)=O)C(=O)N[C@@H](CC(N)=O)C(=O)N[C@@H](CCC(N)=O)C(=O)N[C@@H](CC(=O)O)C(=O)N[C@@H](Cc1ccc(O)cc1)C(=O)N[C@@H](CS)C(N)=O,IC50,[4],0.0003 µM
same,IC50,[15],0.0003 µM
same,IC50,[16],0.0003 µM
same,IC50,[17],0.0003 µM
C#Cc1cncc([C@@H]2CCCN2C)c1 [ALTINICLINE],EC50,[5],3.2 µM
same,Rmax,[8],49%
same,Rmax,[1],26%
same,EC50,[13],10 µM
same,Rmax,[2],49%
same,EC50,[14],2 µM
same,EC50,[6],0.32 µM
same,EC50,[18],3.2 µM
same,Rmax,[3],52%
same,EC50,[7],> 10 µM
CN1CCC[C@H]1c1cccnc1 [NICOTINE],Rmax,[8],114%
same,Rmax,[10],100%
same,Rmax,[1],100% and 85% and 108%
same,EC50,[19],21 µM
same,Rmax,[9],74% and 97%
same,EC50,[20],5.5 µM
same,Rmax,[2],73%
same,EC50,[21],5 µM
same,EC50,[22],80 µM
same,Rmax,[11],100%
same,Rmax,[12],3.5%
CN1CCC[C@H]1CCSc1ccc(O)cc1,Rmax,[8],102%
same,Rmax,[1],62%
same,Rmax,[2],13%
same,Rmax,[23],9%
same,Rmax,[3],71%
same,EC50,[7],> 10 µM
Clc1ccc(C2=CCC[C@H]3CCC2N3)cn1,Rmax,[8],50%
same,Rmax,[1],70%
same,Rmax,[9],55%
same,Rmax,[2],15%
same,Rmax,[23],50%
same,Rmax,[3],50%
O=C1NCC2(CN3CCC2CC3)O1 (centres undefined),Rmax,[9],78%
same,EC50,[20],> 2000 µM
same,EC50,[24],> 1000 µM
same,EC50,[22],> 1000 µM
CC(C)C[C@H](NC(=O)[C@H](C)NC(=O)[C@H](CS)NC(=O)[C@@H]1CCCN1C(=O)[C@@H]1CCCN1C(=O)[C@H](CC(C)C)NC(=O)[C@H](CO)NC(=O)[C@H](CS)NC(=O)[C@H](CS)NC(=O)CN)C(=O)N[C@@H](CO)C(=O)N[C@@H](CC(N)=O)C(=O)N1CCC[C@H]1C(=O)N[C@@H](CC(=O)O)C(=O)N[C@@H](Cc1ccc(O)cc1)C(=O)N[C@@H](CS)C(N)=O (H-GCCSLPPCALSNPDYC-NH2),IC50,[16],0.061 µM
same,IC50,[17],0.061 µM
H-AGGSDRRCRWR-NH2,IC50,[17],0.441 µM
CCN1C[C@]2(COC(=O)c3ccccc3N3C(=O)C[C@H](C)C3=O)CC[C@H](OC)[C@@]34[C@@H]5C[C@H]6[C@H](OC)[C@@H]5[C@](O)(C[C@@H]6OC)[C@](O)([C@@H](OC)[C@H]23)[C@@H]14 [METHYLLYCACONITINE],IC50,[4],> 1 µM
same,IC50,[16],> 1 µM
same,IC50,[25],> 1 µM
same,IC50,[17],> 1 µM
